The values that follow come from patent publication US6444617B1, “Fused-heterocycle dicarboxylic acid diamide derivatives or salts thereof, herbicide and usage thereof” (Nihon Nohyaku Co., Ltd., priority 1998, dated 2002).

SMILES strings stand for the structures.

What all share (assay type): in vivo
The subject of data set [1] is cocklebur (Xanthium strumarium L.), Xs. Description: Test Example 3: herbicidal effect on upland weeds before emergence. The settings on record: dosage 5 kg/ha. An outline of the steps:
(§1)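 Read-out is the weed-killing rate, scored fourteen days after a single spray application made before the weeds emerged. The spray was a liquid agent carrying the active compound at a prescribed dose.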

Data set [2] concerns barnyard grass (Echinochloa crus-galli Beauv.), Ec. The data set is described as above. The note with it: dosage 5 kg/ha. An outline of the steps:
as §1

Data set [3] relates to forxtail grass (Alopecurus aequalis var. amurensis Ohwi), Am. The data set is described as above. The settings on record: foxtail grass, dosage 5 kg/ha. The method in brief:
as §1

Data set [4] has as its system cleavers (Galium aparine L.), Ga. The description is as above. The settings on record: dosage 5 kg/ha. An outline of the steps: as §1
For data set [5], the system named is bird's eye speedwell (Veronica persica Poir.), Vp. The description is as above. The settings on record: dosage 5 kg/ha. The method in brief:
as §1

Data set [6] relates to velvetleaf (Abutilon theophtasti L.), At. The data set is described as above. The settings on record: dosage 5 kg/ha. An outline of the steps: as §1
Data set [7] has as its system monochoria (Monochoria vaginalis Presl). Description: Test Example 2: herbicidal effect on paddy field weeds after emergence. The settings on record: Dosage 5 kg/ha; one-leaved stage; 21 days after treatment. The method in brief:
(§2)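 Weeds in flooded paddy-soil pots were grown to the one-leaved stage, then the soil was treated with the compound solution at a set dosage.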

Data set [8] has as its system bulrush (Scirpus juncoides Roxb.). The description is as above. The note with it: Dosage 5 kg/ha; one-leaved stage; 21 days after treatment. An outline of the steps: as §2
Data set [9] relates to barnyard grass (Echinochloa crus-galli Beauv.). The data set is described as above. The note with it: Dosage 5 kg/ha; one-leaved stage; 21 days after treatment. The method in brief:
as §2

The test system of a further data set is soybean plant. Description: Test Example 4: phytotoxicity to upland crop plants, treatment after emergence. The note with it: dosage 5 kg/ha, sprayed after emergence, judged 14 days after treatment. An outline of the steps: (§3)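 Post-emergence foliar spray, compound at prescribed concentration, applied at defined leaf stages; weeds plus soybean/wheat grown in soil vats. Read-out: weed-killing rate and crop injury, 14 d post-treatment.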

The test system of another data set is wheat. Described as above. The settings on record: dosage 5 kg/ha, sprayed after emergence, judged 14 days after treatment. An outline of the steps:
as §3

The test system of data set [10] is cocklebur (Xanthium strumarium L.), Xs. Description: Test Example 4: herbicidal effect on upland weeds after emergence. The note with it: dosage 5 kg/ha; sprayed after emergence; judged 14 days after treatment. An outline of the steps:
(§4)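 Upland weeds and crop plants (soybean, wheat) are grown from seed in soil until they reach given leaf stages, then treated by spraying with the compound-containing agent; effects are judged two weeks later.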

Data set [11] concerns barnyard grass (Echinochloa crus-galli Beauv.), Ec. Described as above. The settings on record: dosage 5 kg/ha; sprayed after emergence; judged 14 days after treatment. The method in brief:
as §4

Data set [12] relates to forxtail grass (Alopecurus aequalis var. amurensis Ohwi), Am. The data set is described as above. The note with it: dosage 5 kg/ha; sprayed after emergence; judged 14 days after treatment. An outline of the steps: as §4
In data set [13] the test system is cleavers (Galium aparine L.), Ga. The description is as above. The note with it: dosage 5 kg/ha; sprayed after emergence; judged 14 days after treatment. The method in brief:
as §4

In data set [14] the test system is bird's eye speedwell (Veronica persica Poir.), Vp. The description is as above. The note with it: dosage 5 kg/ha; sprayed after emergence; judged 14 days after treatment. An outline of the steps:
as §4

Data set [15] deals with velvetleaf (Abutilon theophtasti L.), At. The description is as above. The settings on record: dosage 5 kg/ha; sprayed after emergence; judged 14 days after treatment. An outline of the steps:
as §4

For another data set, the system named is wheat (Wh). Nature of the data set: Test Example 3: phytotoxicity to upland crop plants, treatment before emergence. The settings on record: dosage 5 kg/ha. The method in brief: (§5)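 Crops treated before emergence with sprayed liquid preparation of compound (prescribed concentration). Day 14: phytotoxicity graded per criterion.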
The next data set has as its system soybean plant (So). Described as above. The settings on record: dosage 5 kg/ha. An outline of the steps: as §5
Data set [16] relates to bulrush (Scirpus juncoides Roxb.). Description: Test Example 1: herbicidal effect on paddy field weeds before emergence. The settings on record: Dosage 5 kg/ha. An outline of the steps: (§6)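 Grading reflects percent control relative to untreated plots, evaluated three weeks post-application. Treatment was a soil application of compound solution, predetermined dose, made to paddy-state pots before weed seeds germinated.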

Data set [17] concerns barnyard grass (Echinochloa crus-galli Beauv.). The description is as above. The note with it: Dosage 5 kg/ha. An outline of the steps:
as §6

For the compound `CCNC(=O)c1nc2ccc(O)cc2cc1C(=O)Nc1c(CC)ccc(Cl)c1CC` [compound 275], the “Herbicidal effect Xs” value in data set [1] and in data set [10] was 3 (Weed-killing rate is 70-89%.) throughout. The “Herbicidal effect Ec” value in [2] and in data set [11] was 4 (Weed-killing rate is 90-99%.) each time. Further, the “Herbicidal effect Am” value in data set [3] and in [12] was 3 (Weed-killing rate is 70-89%.) throughout. The “Herbicidal effect Ga” value in data set [4] and in data set [13] was 3 (Weed-killing rate is 70-89%.) throughout. In addition, the “Herbicidal effect Vp” value in data set [5] and in data set [14] was 4 (Weed-killing rate is 90-99%.) each time. The “Herbicidal effect At” value in data set [6] and in [15] was 4 (Weed-killing rate is 90-99%.) each time. Also, in [7], the “Post-emergence treatment Monochoria (herbicidal effect)” value (“Post-emergence treatment Monochoria” below) is given as 5 (Weed-killing rate is 100%.). Besides, in data set [8], the “Post-emergence treatment Bulrush (herbicidal effect)” value (from here on “Post-emergence treatment Bulrush”) was 4 (Weed-killing rate is 90-99%.). Also, the “Post-emergence treatment Barnyard grass (herbicidal effect)” value (“Post-emergence treatment Barnyard grass” below) in data set [9] was 5 (Weed-killing rate is 100%.). Moreover, the “Phytotoxicity So” value is on record as 1 (Crop-killing rate is 1-39%.) in the data set with soybean plant and 0 (Crop-killing rate is 0-20% (No Phytotoxicity).) in the data set on soybean plant (So). Also, the “Phytotoxicity Wh” value in the data set with wheat was 2 (Crop-killing rate is 40-69%.); with wheat (Wh) it was 1 (Crop-killing rate is 1-39%.). The “Pre-emergence treatment Bulrush (herbicidal effect)” value (from here on “Pre-emergence treatment Bulrush”) in data set [16] is reported as 5 (Weed-killing rate is 100%.). The “Pre-emergence treatment Barnyard grass (herbicidal effect)” value (shortened to “Pre-emergence treatment Barnyard grass”) in [17] is reported as 5 (Weed-killing rate is 100%.).

Consider `CCCNC(=O)c1nc2ccc(O)cc2cc1C(=O)Nc1c(CC)ccc(Cl)c1CC` [compound 276], for which the “Herbicidal effect Xs” value in data set [1] and in [10] was 4 (Weed-killing rate is 90-99%.) each time. Further, the “Herbicidal effect Ec” value in [2] and in [11] was 5 (Weed-killing rate is 100%.) each time. Besides, the “Herbicidal effect Am” value in data set [3] and in data set [12] was 4 (Weed-killing rate is 90-99%.) each time. For the same compound, the “Herbicidal effect Ga” value in [4] and in [13] was 4 (Weed-killing rate is 90-99%.) each time. For the same compound, the “Herbicidal effect Vp” value in [5] and in data set [14] was 5 (Weed-killing rate is 100%.) throughout. Also, the “Herbicidal effect At” value in data set [6] and in data set [15] was 5 (Weed-killing rate is 100%.) throughout. For the same compound, the “Post-emergence treatment Monochoria” value in data set [7] was 5 (Weed-killing rate is 100%.). Further, the “Post-emergence treatment Bulrush” value in data set [8] is 4 (Weed-killing rate is 90-99%.). In addition, the “Post-emergence treatment Barnyard grass” value in data set [9] is given as 3 (Weed-killing rate is 70-89%.). The “Phytotoxicity So” value was 2 (Crop-killing rate is 40-69%.) with soybean plant and 0 (Crop-killing rate is 0-20% (No Phytotoxicity).) with soybean plant (So). The “Phytotoxicity Wh” value in the data set on wheat is on record as 3 (Crop-killing rate is 70-89%.); with wheat (Wh) it was 2 (Crop-killing rate is 40-69%.). Further, the “Pre-emergence treatment Bulrush” value in data set [16] was 5 (Weed-killing rate is 100%.). Moreover, the “Pre-emergence treatment Barnyard grass” value in [17] is listed as 5 (Weed-killing rate is 100%.).

For the compound `CCNC(=O)c1nc2ccc(OC)cc2cc1C(=O)Nc1c(CC)ccc(Cl)c1CC` [compound 289], the “Herbicidal effect Xs” value in data set [1] and in [10] was 3 (Weed-killing rate is 70-89%.) in each case. Also, the “Herbicidal effect Ec” value in data set [2] and in data set [11] was 5 (Weed-killing rate is 100%.) in each case. Also, the “Herbicidal effect Am” value in [3] and in [12] was 4 (Weed-killing rate is 90-99%.) throughout. For the same compound, the “Herbicidal effect Ga” value in data set [4] and in data set [13] was 4 (Weed-killing rate is 90-99%.) each time. The “Herbicidal effect Vp” value in data set [5] and in data set [14] was 5 (Weed-killing rate is 100%.) throughout. Besides, the “Herbicidal effect At” value in data set [6] and in data set [15] was 5 (Weed-killing rate is 100%.) each time. The “Post-emergence treatment Monochoria” value in data set [7] was 5 (Weed-killing rate is 100%.). In [8], the “Post-emergence treatment Bulrush” value was 4 (Weed-killing rate is 90-99%.). Besides, the “Post-emergence treatment Barnyard grass” value in [9] is 5 (Weed-killing rate is 100%.). Moreover, the “Phytotoxicity So” value in the data set on soybean plant and with soybean plant (So) was 1 (Crop-killing rate is 1-39%.) throughout. Further, the “Phytotoxicity Wh” value with wheat and in the data set on wheat (Wh) was 2 (Crop-killing rate is 40-69%.) throughout. The “Pre-emergence treatment Bulrush” value in data set [16] is 5 (Weed-killing rate is 100%.). Also, the “Pre-emergence treatment Barnyard grass” value in data set [17] is 5 (Weed-killing rate is 100%.).

For the compound `CCCNC(=O)c1nc2ccc(OC)cc2cc1C(=O)Nc1c(CC)ccc(Cl)c1CC` [compound 290], the “Herbicidal effect Xs” value in data set [1] and in data set [10] was 4 (Weed-killing rate is 90-99%.) in each case. Also, the “Herbicidal effect Ec” value in [2] and in data set [11] was 5 (Weed-killing rate is 100%.) in each case. Besides, the “Herbicidal effect Am” value in [3] and in data set [12] was 5 (Weed-killing rate is 100%.) throughout. Also, the “Herbicidal effect Ga” value in data set [4] and in data set [13] was 5 (Weed-killing rate is 100%.) throughout. Further, the “Herbicidal effect Vp” value in [5] and in data set [14] was 5 (Weed-killing rate is 100%.) each time. Moreover, the “Herbicidal effect At” value in data set [6] and in data set [15] was 5 (Weed-killing rate is 100%.) throughout. Further, the “Post-emergence treatment Monochoria” value in data set [7] is reported as 5 (Weed-killing rate is 100%.). In addition, in [8], the “Post-emergence treatment Bulrush” value is listed as 5 (Weed-killing rate is 100%.). In [9], the “Post-emergence treatment Barnyard grass” value was 5 (Weed-killing rate is 100%.). For the same compound, the “Phytotoxicity So” value in the data set with soybean plant was 2 (Crop-killing rate is 40-69%.); in the data set on soybean plant (So), 1 (Crop-killing rate is 1-39%.). The “Phytotoxicity Wh” value with wheat is given as 3 (Crop-killing rate is 70-89%.); with wheat (Wh), 2 (Crop-killing rate is 40-69%.). For the same compound, the “Pre-emergence treatment Bulrush” value in data set [16] was 5 (Weed-killing rate is 100%.). For the same compound, the “Pre-emergence treatment Barnyard grass” value in data set [17] is 5 (Weed-killing rate is 100%.).
